For this test, the target named is T1, Glutathione reductase, mitochondrial (Homo sapiens, UniProt P00390).
T1 sequence (P00390 whole entry): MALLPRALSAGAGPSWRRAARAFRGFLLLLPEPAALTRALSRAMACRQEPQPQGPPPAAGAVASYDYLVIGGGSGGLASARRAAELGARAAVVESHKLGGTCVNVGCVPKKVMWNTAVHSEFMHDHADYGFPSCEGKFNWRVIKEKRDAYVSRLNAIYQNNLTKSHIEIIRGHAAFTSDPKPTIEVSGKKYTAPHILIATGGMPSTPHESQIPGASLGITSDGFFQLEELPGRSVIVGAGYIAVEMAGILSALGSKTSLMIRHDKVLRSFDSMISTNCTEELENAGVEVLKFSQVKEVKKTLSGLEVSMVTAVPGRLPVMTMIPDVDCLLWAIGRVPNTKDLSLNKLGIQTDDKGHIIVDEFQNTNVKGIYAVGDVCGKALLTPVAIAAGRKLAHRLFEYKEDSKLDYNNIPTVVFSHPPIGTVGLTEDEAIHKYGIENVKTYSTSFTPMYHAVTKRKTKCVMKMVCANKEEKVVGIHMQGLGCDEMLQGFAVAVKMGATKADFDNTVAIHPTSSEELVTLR
The experiment in a line: Inhibition of human erythrocyte glutathione reductase.

Molecules are shown by their SMILES.

Usually IC50 stands for the midpoint of a concentration-inhibition curve. Usually Ki stands for the dissociation constant of the complex between target and ligand, obtained from inhibition or displacement. Low readings indicate tighter binding, high ones weaker binding. Compound `O=[N+]([O-])O[C@H]1CC2CCC1[C@@H]2O` (stereo partly drawn) registered a 50% inhibitory concentration (IC50) of 7.13 µM and an inhibitory constant (Ki) of 13.1 µM.
For `O=[N+]([O-])O[C@@H]1CC2CCC1[C@@H]2O` (stereo partly drawn), in that order: 6.81 µM and 11.7 µM.
For `O=[N+]([O-])O[C@@H]1CC[C@H](Br)[C@@H]2CC[C@H]1O2`, in that order: 11 µM and 21.5 µM.
The like results for `O=[N+]([O-])O[C@H]1CCCCCC[C@@H]1O` were, in that order, 14.2 µM and 21.9 µM.
As to `O=[N+]([O-])OC1CC2c3ccccc3C1C2O` (stereo not drawn), half-maximal inhibition (IC50) was put at 10.3 µM and the affinity corresponds to a Ki of 18.8 µM.
For `O=[N+]([O-])O[C@H]1CCCC[C@@H]1O`, in that order: 21 µM and 43.7 µM.
On to `O=[N+]([O-])O[C@H]1CC=CC[C@@H]1O` (racemic), for which half-maximal inhibition (IC50) required 23 µM and the inhibitory constant (Ki) worked out at 35.1 µM.
The like results for `O=[N+]([O-])O[C@H]1CC/C=C\CC[C@@H]1O` (racemic) were, in that order, 29 µM and 44.3 µM.
For `O=[N+]([O-])O[C@@H](CO)c1ccccc1` (single isomer, unassigned), in that order: 16 µM and 25.6 µM.
